Reference: PMC12090182, “Repurposing of the RIPK1-Selective Benzo[1,4]oxazepin-4-one Scaffold for the Development of a Type III LIMK1/2 Inhibitor” (ACS Chemical Biology, 2025)

How the values were obtained:
Assay in all cases: scanMAX KINOMEscan (Eurofins)
Format in all cases: binding
ACVR2A = ACVR2A (Homo sapiens, UniProt P27037); conditions: read-out: Percent Control
Text: (§1) Supplement cb5c00097_si_002.xlsx, sheet "Table S6 (Eurofins Selectivity)" | column: Percent Control

AMPK-alpha2 = AMPK-alpha2 (Homo sapiens, UniProt P54646); conditions: read-out: Percent Control
Text: as §1

BLK = BLK (Homo sapiens, UniProt P51451); conditions: 1000 nM, read-out: Percent Control
Text: as §1

CAMK2A = CAMK2A (Homo sapiens, UniProt Q9UQM7); conditions: 1000 nM, read-out: Percent Control
Text: as §1

CDK4 = CDK4 (Homo sapiens, UniProt P11802); conditions: 1000 nM, read-out: Percent Control
Text: as §1

CDK5 = CDK5 (Homo sapiens, UniProt Q00535); conditions: read-out: Percent Control
Text: as §1

CDK7 = CDK7 (Homo sapiens, UniProt P50613); conditions: read-out: Percent Control
Text: as §1

CHEK1 = CHEK1 (Homo sapiens, UniProt O14757); conditions: read-out: Percent Control
Text: as §1

CSF1R-autoinhibited = CSF1R-autoinhibited (Homo sapiens, UniProt P07333); conditions: 1000 nM, read-out: Percent Control
Text: as §1

CSK = CSK (Homo sapiens, UniProt P41240); conditions: 1000 nM, read-out: Percent Control
Text: as §1

DCAMKL2 = DCAMKL2 (Homo sapiens, UniProt Q8N568); conditions: 1000 nM, read-out: Percent Control
Text: as §1

DMPK = DMPK (Homo sapiens, UniProt Q09013); conditions: read-out: Percent Control
Text: as §1

EPHA5 = EPHA5 (Homo sapiens, UniProt P54756); conditions: 1000 nM, read-out: Percent Control
Text: as §1

HIPK1 = HIPK1 (Homo sapiens, UniProt Q86Z02); conditions: 1000 nM, read-out: Percent Control
Text: as §1

[1] = molecular target: JAK1(JH2domain-pseudokinase) (Homo sapiens, UniProt P23458); conditions: 1000 nM, read-out: Percent Control
Text: as §1

MAP3K2 = MAP3K2 (Homo sapiens, UniProt Q9Y2U5); conditions: compound concentration 100 nM; Entrez MAP3K2; read-out: Percent Control
Text: as §1

MARK1 = MARK1 (Homo sapiens, UniProt Q9P0L2); conditions: compound concentration 100 nM; Entrez MARK1; read-out: Percent Control
Text: as §1

MYO3A = MYO3A (Homo sapiens, UniProt Q8NEV4); conditions: 1000 nM, read-out: Percent Control
Text: as §1

NDR1 = NDR1 (Homo sapiens, UniProt Q15208); conditions: 1000 nM, read-out: Percent Control
Text: as §1

PAK3 = PAK3 (Homo sapiens, UniProt O75914); conditions: 1000 nM, read-out: Percent Control
Text: as §1

PCTK3 = PCTK3 (Homo sapiens, UniProt Q07002); conditions: 1000 nM, read-out: Percent Control
Text: as §1

PHKG1 = PHKG1 (Homo sapiens, UniProt Q16816); conditions: 1000 nM, read-out: Percent Control
Text: as §1

PIK3C2B = PIK3C2B (Homo sapiens, UniProt O00750); conditions: compound concentration 100 nM; Entrez PIK3C2B; read-out: Percent Control
Text: as §1

PIP5K1A = PIP5K1A (Homo sapiens, UniProt Q99755); conditions: 1000 nM, read-out: Percent Control
Text: as §1

PRKCQ = PRKCQ (Homo sapiens, UniProt Q04759); conditions: 1000 nM, read-out: Percent Control
Text: as §1

PRKG1 = PRKG1 (Homo sapiens, UniProt Q13976); conditions: 1000 nM, read-out: Percent Control
Text: as §1

RET = RET (Homo sapiens, UniProt P07949); conditions: compound concentration 100 nM; Entrez RET; read-out: Percent Control
Text: as §1

RIOK2 = RIOK2 (Homo sapiens, UniProt Q9BVS4); conditions: compound concentration 100 nM; Entrez RIOK2; read-out: Percent Control
Text: as §1

SIK = SIK (Homo sapiens, UniProt P57059); conditions: 1000 nM, read-out: Percent Control
Text: as §1

SRPK2 = SRPK2 (Homo sapiens, UniProt P78362); conditions: compound concentration 100 nM; Entrez SRPK2; read-out: Percent Control
Text: as §1

SgK110 = SgK110 (Homo sapiens, UniProt P0C264); conditions: compound concentration 100 nM; Entrez SgK110; read-out: Percent Control
Text: as §1

TBK1 = TBK1 (Homo sapiens, UniProt Q9UHD2); conditions: 1000 nM, read-out: Percent Control
Text: as §1

TESK1 = TESK1 (Homo sapiens, UniProt Q15569); conditions: 1000 nM, read-out: Percent Control
Text: as §1

ULK1 = ULK1 (Homo sapiens, UniProt O75385); conditions: compound concentration 100 nM; Entrez ULK1; read-out: Percent Control
Text: as §1

WEE1 = WEE1 (Homo sapiens, UniProt P30291); conditions: 1000 nM, read-out: Percent Control
Text: as §1

p38-gamma = p38-gamma (Homo sapiens, UniProt P53778); conditions: 1000 nM, read-out: Percent Control
Text: as §1

Chain of CHEK1 (O14757 whole entry): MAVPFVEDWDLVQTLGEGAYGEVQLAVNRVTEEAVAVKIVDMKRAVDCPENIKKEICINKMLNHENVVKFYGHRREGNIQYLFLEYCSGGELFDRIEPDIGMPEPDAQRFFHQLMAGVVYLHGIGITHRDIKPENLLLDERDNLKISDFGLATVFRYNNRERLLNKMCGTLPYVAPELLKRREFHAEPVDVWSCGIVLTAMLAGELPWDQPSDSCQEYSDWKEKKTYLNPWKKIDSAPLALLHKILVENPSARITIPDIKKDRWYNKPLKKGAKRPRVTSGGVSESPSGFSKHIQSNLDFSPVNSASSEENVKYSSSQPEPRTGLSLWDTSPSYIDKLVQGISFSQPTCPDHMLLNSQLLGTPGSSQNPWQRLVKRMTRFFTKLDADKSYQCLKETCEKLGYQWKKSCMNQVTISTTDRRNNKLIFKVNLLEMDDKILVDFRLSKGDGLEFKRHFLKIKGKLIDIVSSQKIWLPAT
Chain of CDK5 (Q15078 whole entry): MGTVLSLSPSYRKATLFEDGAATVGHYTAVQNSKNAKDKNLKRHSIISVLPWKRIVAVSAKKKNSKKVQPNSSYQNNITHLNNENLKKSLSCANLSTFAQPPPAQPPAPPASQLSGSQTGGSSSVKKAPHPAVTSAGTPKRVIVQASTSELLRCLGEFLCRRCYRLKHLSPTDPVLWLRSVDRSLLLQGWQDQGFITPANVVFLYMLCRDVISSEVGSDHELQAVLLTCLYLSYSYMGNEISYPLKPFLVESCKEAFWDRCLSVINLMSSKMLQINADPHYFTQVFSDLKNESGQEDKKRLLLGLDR
Chain of CDK5 (Q00535 whole entry): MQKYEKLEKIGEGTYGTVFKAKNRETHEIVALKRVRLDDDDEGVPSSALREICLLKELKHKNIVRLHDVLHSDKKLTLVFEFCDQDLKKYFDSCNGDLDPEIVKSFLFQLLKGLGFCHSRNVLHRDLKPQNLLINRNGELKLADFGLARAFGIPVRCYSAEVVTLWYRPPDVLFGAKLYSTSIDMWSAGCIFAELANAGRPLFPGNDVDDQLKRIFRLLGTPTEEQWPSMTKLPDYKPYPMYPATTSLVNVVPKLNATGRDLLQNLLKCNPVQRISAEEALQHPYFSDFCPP
Chain of AMPK-alpha2 (P54646 whole entry): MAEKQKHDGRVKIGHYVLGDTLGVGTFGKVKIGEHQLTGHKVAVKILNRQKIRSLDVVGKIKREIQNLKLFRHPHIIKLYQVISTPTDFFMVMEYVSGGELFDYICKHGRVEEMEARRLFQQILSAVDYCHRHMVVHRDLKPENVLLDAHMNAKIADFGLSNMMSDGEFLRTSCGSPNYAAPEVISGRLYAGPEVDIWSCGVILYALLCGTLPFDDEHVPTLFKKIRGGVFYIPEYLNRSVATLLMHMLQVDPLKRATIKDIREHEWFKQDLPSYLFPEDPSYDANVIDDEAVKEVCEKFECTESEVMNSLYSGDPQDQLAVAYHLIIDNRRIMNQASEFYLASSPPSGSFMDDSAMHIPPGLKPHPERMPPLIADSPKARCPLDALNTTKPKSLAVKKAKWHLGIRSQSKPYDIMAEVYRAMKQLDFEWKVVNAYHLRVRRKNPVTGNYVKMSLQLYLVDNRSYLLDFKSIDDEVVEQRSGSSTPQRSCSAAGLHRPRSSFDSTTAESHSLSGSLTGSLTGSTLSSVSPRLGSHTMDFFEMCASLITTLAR
Chain of ACVR2A (P27037 20-513): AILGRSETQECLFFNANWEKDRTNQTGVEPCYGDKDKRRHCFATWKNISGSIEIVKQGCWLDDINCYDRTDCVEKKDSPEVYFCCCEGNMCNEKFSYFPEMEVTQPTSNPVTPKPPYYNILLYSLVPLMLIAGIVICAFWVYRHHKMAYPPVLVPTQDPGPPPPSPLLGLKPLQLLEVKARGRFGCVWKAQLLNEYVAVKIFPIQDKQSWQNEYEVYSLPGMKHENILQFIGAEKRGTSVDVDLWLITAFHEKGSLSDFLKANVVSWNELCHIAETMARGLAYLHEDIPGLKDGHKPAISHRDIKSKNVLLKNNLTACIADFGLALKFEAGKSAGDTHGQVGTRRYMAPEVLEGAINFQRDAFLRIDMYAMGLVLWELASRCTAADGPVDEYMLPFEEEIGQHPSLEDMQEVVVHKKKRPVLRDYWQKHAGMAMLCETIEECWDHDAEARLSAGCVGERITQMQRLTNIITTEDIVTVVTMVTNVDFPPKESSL
Chain of CDK7 (P50613 whole entry): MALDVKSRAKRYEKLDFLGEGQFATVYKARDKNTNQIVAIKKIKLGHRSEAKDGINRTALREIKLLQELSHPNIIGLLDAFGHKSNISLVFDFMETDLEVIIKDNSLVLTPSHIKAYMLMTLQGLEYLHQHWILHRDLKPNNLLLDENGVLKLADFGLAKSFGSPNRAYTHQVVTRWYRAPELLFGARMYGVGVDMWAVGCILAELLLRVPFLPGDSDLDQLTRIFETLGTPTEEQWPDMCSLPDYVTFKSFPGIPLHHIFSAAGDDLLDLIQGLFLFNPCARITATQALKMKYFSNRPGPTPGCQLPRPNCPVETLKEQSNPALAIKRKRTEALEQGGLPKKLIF
Chain of DMPK (Q09013 whole entry): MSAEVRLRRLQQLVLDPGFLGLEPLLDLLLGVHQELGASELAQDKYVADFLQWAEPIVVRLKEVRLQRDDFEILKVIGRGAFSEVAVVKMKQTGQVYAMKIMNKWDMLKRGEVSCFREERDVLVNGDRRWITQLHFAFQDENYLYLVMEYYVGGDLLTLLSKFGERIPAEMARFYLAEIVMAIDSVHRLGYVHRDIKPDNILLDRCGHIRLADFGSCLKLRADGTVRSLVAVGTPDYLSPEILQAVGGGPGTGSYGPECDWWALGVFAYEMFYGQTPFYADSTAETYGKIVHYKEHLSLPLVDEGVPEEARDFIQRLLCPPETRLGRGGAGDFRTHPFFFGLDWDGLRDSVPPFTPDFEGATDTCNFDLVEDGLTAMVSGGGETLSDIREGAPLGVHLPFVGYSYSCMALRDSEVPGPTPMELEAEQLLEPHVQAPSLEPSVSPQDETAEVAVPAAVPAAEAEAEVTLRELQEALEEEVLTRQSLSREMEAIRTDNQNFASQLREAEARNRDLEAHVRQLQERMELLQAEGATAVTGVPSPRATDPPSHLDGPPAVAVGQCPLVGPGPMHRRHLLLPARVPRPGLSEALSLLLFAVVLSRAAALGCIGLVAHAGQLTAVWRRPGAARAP
Chain of JAK1(JH2domain-pseudokinase) (P23458 561-860): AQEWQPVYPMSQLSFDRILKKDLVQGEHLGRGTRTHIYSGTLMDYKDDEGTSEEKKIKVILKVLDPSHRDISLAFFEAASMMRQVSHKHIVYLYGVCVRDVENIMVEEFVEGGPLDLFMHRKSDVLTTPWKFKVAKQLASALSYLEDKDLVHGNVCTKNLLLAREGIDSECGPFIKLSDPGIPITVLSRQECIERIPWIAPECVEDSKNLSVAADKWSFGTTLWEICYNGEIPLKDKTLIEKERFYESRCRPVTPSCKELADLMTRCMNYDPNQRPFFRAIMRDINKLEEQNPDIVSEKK
Chain of PRKCQ (Q04759 whole entry): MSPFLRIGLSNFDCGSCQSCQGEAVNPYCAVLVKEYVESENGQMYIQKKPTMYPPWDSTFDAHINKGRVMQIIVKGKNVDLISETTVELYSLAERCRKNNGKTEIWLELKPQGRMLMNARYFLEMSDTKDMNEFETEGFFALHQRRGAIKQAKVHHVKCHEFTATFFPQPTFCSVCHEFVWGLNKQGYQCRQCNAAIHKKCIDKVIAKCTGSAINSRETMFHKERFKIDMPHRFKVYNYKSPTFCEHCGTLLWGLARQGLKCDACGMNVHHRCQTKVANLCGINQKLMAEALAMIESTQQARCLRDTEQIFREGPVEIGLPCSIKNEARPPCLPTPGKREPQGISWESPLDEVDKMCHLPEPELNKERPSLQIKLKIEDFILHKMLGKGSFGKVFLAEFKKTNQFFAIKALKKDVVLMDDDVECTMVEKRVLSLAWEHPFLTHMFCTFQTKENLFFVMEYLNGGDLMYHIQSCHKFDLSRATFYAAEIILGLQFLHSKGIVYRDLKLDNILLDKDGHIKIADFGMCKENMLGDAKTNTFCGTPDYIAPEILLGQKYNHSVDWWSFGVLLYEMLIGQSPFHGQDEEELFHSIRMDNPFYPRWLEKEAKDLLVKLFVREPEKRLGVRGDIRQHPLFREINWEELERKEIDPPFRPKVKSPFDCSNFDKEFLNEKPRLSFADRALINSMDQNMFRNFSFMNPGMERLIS
Chain of BLK (P51451 whole entry): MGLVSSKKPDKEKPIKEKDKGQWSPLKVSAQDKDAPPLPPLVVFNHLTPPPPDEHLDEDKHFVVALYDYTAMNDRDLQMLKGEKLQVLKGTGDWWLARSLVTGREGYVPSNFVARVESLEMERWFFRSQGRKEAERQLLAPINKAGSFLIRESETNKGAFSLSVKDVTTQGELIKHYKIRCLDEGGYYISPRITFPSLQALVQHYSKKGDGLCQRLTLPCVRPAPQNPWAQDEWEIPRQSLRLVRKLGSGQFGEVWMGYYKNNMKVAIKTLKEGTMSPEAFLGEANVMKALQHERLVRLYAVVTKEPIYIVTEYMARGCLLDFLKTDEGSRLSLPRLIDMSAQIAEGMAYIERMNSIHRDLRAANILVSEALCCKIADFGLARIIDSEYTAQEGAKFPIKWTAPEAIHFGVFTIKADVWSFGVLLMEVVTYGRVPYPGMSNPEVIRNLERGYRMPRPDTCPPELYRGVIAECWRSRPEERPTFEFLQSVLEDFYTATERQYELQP
Chain of SgK110 (P0C264 whole entry): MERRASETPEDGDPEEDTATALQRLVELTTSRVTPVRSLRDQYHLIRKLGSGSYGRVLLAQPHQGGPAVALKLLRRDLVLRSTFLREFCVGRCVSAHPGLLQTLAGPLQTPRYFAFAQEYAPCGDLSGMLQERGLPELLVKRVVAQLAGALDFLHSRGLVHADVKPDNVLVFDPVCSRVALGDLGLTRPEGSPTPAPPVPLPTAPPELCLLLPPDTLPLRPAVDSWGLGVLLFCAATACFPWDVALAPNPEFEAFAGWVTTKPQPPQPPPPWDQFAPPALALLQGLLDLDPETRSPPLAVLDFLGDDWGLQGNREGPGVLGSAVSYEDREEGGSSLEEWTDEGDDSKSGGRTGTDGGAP

CN1C(=O)[C@@H](N2CCc3c(nn(Cc4ccccc4)c3C(N)=O)C2=O)COc2cc(Cl)ccc21 [Compound 10, (S)-2-benzyl-6-(8-chloro-5-methyl-4-oxo-2,3,4,5-tetrahydrobenzo[b][1,4]oxazepin-3-yl)-7-oxo-4,5,6,7-tetrahydro-2H-pyrazolo[3,4-c]pyridine-3-carboxamide]
remaining binding at 1 µM (ACVR2A; 1000 nM): 100%
remaining binding at 0.1 µM (ACVR2A; compound concentration 100 nM, Entrez ACVR2A): 100%
remaining binding at 1 µM (AMPK-alpha2; 1000 nM): 100%
remaining binding at 0.1 µM (AMPK-alpha2; compound concentration 100 nM, Entrez PRKAA2): 100%
remaining binding at 1 µM (BLK): 88%
remaining binding at 1 µM (CAMK2A): 90%
remaining binding at 1 µM (CDK4): 76%
remaining binding at 1 µM (CDK5; 1000 nM): 99%
remaining binding at 0.1 µM (CDK5; compound concentration 100 nM, Entrez CDK5): 78%
remaining binding at 1 µM (CDK7; 1000 nM): 99%
remaining binding at 0.1 µM (CDK7; compound concentration 100 nM, Entrez CDK7): 72%
remaining binding at 1 µM (CHEK1; 1000 nM): 100%
remaining binding at 0.1 µM (CHEK1; compound concentration 100 nM, Entrez CHEK1): 86%
remaining binding at 1 µM (CSF1R-autoinhibited): 74%
remaining binding at 1 µM (CSK): 97%
remaining binding at 1 µM (DCAMKL2): 83%
remaining binding at 1 µM (DMPK; 1000 nM): 100%
remaining binding at 0.1 µM (DMPK; compound concentration 100 nM, Entrez DMPK): 80%
remaining binding at 1 µM (EPHA5): 97%
remaining binding at 1 µM (HIPK1): 93%
remaining binding at 1 µM [1]: 94%
remaining binding at 0.1 µM (MAP3K2): 100%
remaining binding at 0.1 µM (MARK1): 76%
remaining binding at 1 µM (MYO3A): 94%
remaining binding at 1 µM (NDR1): 97%
remaining binding at 1 µM (PAK3): 74%
remaining binding at 1 µM (PCTK3): 88%
remaining binding at 1 µM (PHKG1): 93%
remaining binding at 0.1 µM (PIK3C2B): 86%
remaining binding at 1 µM (PIP5K1A): 69%
remaining binding at 1 µM (PRKCQ): 91%
remaining binding at 1 µM (PRKG1): 91%
remaining binding at 0.1 µM (RET): 100%
remaining binding at 0.1 µM (RIOK2): 94%
remaining binding at 1 µM (SIK): 91%
remaining binding at 0.1 µM (SRPK2): 100%
remaining binding at 0.1 µM (SgK110): 93%
remaining binding at 1 µM (TBK1): 94%
remaining binding at 1 µM (TESK1): 79%
remaining binding at 0.1 µM (ULK1): 100%
remaining binding at 1 µM (WEE1): 95%
remaining binding at 1 µM (p38-gamma): 70%
